Test system: not listed separately
Test: antibacterial activity of optically active cyclopentenones
Type: cell-based
Details: method of the corresponding examples
In the case of O=C1C=C[C@@H](O)[C@@H]1O (single isomer, unassigned) [(+)-trans-cyclopentenone, (+)-trans-4,5-dihydroxy-2-cyclopenten-1-one], the antibacterial activity is reported as “antibacterial activity”.
For O=C1C=C[C@@H](O)[C@@H]1O (single isomer, unassigned) [(-)-trans-cyclopentenone, (-)-trans-4,5-dihydroxy-2-cyclopenten-1-one], the antibacterial activity was “antibacterial activity”.
In the case of O=C1C=CC(O)C1O (single isomer, unassigned; (+)) [(+)-cis-cyclopentenone], the antibacterial activity is reported as “antibacterial activity”.
In the case of O=C1C=CC(O)C1O (single isomer, unassigned; (-)) [(-)-cis-cyclopentenone], the antibacterial activity is reported as “antibacterial activity”.

Test system: human promyelocytic leukemia cells HL-60
Test: MTT cell growth inhibition, optically active cyclopentenones
Type: cell-based
Details: method of the corresponding examples
Method: An ethanolic solution (1 mg/ml) of each of the (-)- and (+) -cyclopentenoneobtained in Example 16 was diluted with a 75% aqueous ethanol solution to an extent of 2, 4, 8, 16, 32, 64, 128, 256, 512, 1024 and 2048-fold and each 5 μl of them was charged in each of the wells of a 96-well microtiter plate followed by drying with air. An RPMI 1640 medium (100 μl) containing 10% fetal bovine serum containing 5000 human promyelocytic leukemia cells HL-60 (ATCC CCL-240) was added to each well and incubated at 37° C. for 48 hours in the presence of 5% of carbon dioxide gas. After observing the morphology of the cells under an optical microscope, 10 μl of phosphate buffered saline containing 5 mg/ml of 3-(4,5-dimethylthiazol-2-yl)-2,5-diphenyltetrazolium bromide (MTT; manufactured by Sigma) thereto, an incubation was conducted for additional four hours and the growth state of the cells was observed under a microscope. Further, 100 μl of 2-propanol containing 0.04N HCl was added thereto followed by well stirring and an absorbance at 590 nm was measured and defined as the degree of cell growth.
With O=C1C=C[C@@H](O)[C@@H]1O (single isomer, unassigned) [(+)-trans-cyclopentenone, (+)-trans-4,5-dihydroxy-2-cyclopenten-1-one] the cell growth inhibition was “cell growth inhibiting activity”.
For O=C1C=C[C@@H](O)[C@@H]1O (single isomer, unassigned) [(-)-trans-cyclopentenone, (-)-trans-4,5-dihydroxy-2-cyclopenten-1-one], the cell growth inhibition was “cell growth inhibiting activity”.
In the case of O=C1C=CC(O)C1O (single isomer, unassigned; (+)) [(+)-cis-cyclopentenone], the cell growth inhibition is reported as “cell growth inhibiting activity”.
With O=C1C=CC(O)C1O (single isomer, unassigned; (-)) [(-)-cis-cyclopentenone] the cell growth inhibition was “cell growth inhibiting activity”.

Test system: HL-60 cells
Test: cancer cell differentiation (Wright-Giemsa stain)
Type: cell-based, human
Details: method of the corresponding examples
Method: (2) To HL-60 cells was added 10^-4 μg/ml of the cyclopentenone and an incubation by the same manner as in Example 15-(1) was conducted for three days. […] The result was that the differentiated cells were around 10% in the control where no cyclopentenone was added while, in the fractions to which the cyclopentenone was added, 50% or more cells were differentiated to monocyte- or to macrophage-like cells.
The result was that the differentiated cells were around 10% in the control where no cyclopentenone was added while, in the fraction to which 0.005 μg/ml of the cyclopentenone was added, 25% or more cells were differentiated to mature bone marrow cells.
In the case of O=C1C=C[C@@H](O)[C@@H]1O (single isomer, unassigned) [(+)-trans-cyclopentenone, (+)-trans-4,5-dihydroxy-2-cyclopenten-1-one], the “cancer cell differentiation inducing activity” value is reported as “cancer cell differentiation inducing activity”.
For O=C1C=C[C@@H](O)[C@@H]1O (single isomer, unassigned) [(-)-trans-cyclopentenone, (-)-trans-4,5-dihydroxy-2-cyclopenten-1-one], the “cancer cell differentiation inducing activity” value was “cancer cell differentiation inducing activity”.
In the case of O=C1C=CC(O)C1O (single isomer, unassigned; (+)) [(+)-cis-cyclopentenone], the “cancer cell differentiation inducing activity” value is reported as “cancer cell differentiation inducing activity”.
With O=C1C=CC(O)C1O (single isomer, unassigned; (-)) [(-)-cis-cyclopentenone] the “cancer cell differentiation inducing activity” value was “cancer cell differentiation inducing activity”.

Test system: HL-60 cells
Test: apoptosis-inducing activity to HL-60 cells
Type: cell-based, human
Details: method of the corresponding examples
Method: (2) The cyclopentenone prepared in Example 2-(1) was used for preparing aqueous solutions of the cyclopentenone in the concentrations of 2.86 mM, 955 μM, 318 μM, 106 μM, 35 μM, 12 μM and […]. Then said heat-treated substance was adjusted to pH 7.0 with NaOH and the apoptosis-inducing activity to HL-60 cells was measured as follows.
To 1.35 ml of this suspension was added 0.15 ml of the above-mentioned cyclopentenone solution and the mixture was incubated at […] for 20 hours in the presence of 5% of carbon dioxide gas.
For O=C1C=C[C@@H](O)[C@@H]1O (single isomer, unassigned) [(+)-trans-cyclopentenone, (+)-trans-4,5-dihydroxy-2-cyclopenten-1-one], the apoptosis inducing activity was “apoptosis inducing activity”.
In the case of O=C1C=C[C@@H](O)[C@@H]1O (single isomer, unassigned) [(-)-trans-cyclopentenone, (-)-trans-4,5-dihydroxy-2-cyclopenten-1-one], the apoptosis inducing activity is reported as “apoptosis inducing activity”.
In the case of O=C1C=CC(O)C1O (single isomer, unassigned; (+)) [(+)-cis-cyclopentenone], the apoptosis inducing activity is reported as “apoptosis inducing activity”.
In the case of O=C1C=CC(O)C1O (single isomer, unassigned; (-)) [(-)-cis-cyclopentenone], the apoptosis inducing activity is reported as “apoptosis inducing activity”.

From patent US6087401A, “Cyclopentenones, process for preparing the same, and the use thereof” (Takara Shuzo Co., Ltd., priority 1996, dated 2000)
